From patent US20190015423A1, “REGULATION OF GENE EXPRESSION BY MODULATING PRIMARY CILIA LENGTH” (THE TRUSTEES OF COLUMBIA UNIVERSITY IN THE CITY OF NEW YORK, priority 2016, published 2019) come the findings set out here.

Molecules are shown by their SMILES. Entries after “also recorded” stand apart in the source; their conditions may differ. Counter-ions that a name gives are not always drawn.

The experiment relates to MLO-Y4 osteocytes. Description: High-throughput drug screening of primary cilia length and incidence. In kind it is cell-based. To be noted: 10 μM, 16 hours; for Average Length SD Away / Average Incidence SD Away: triplicate, normalized to vehicle control, standard deviation away from the population average. The method, then:
MLO-Y4 osteocytes were maintained on collagen I-coated dishes in MEMα (Life_Technologies) supplemented with 5% fetal bovine serum (FBS), 5% calf serum (CS), and 1% penicillin/streptomycin (P/S) at 37° C. and 5% CO2. Osteocytes were then seeded onto 384-well collagen-coated plates for 72 hours before fixation. […] These libraries include Tocris, Sigma LOPAC, Selleck Chemical, Prestwick, and Spectrum commercially available compound libraries. All cell seeding and plate handling was performed with the Perkin Elmer cell:explorer workstation.
Cells were fixed in 4% paraformaldehyde and permeabilized with 0.1% Triton-X 100 (Sigma). 10% goat serum (vendor) was used for blocking. Cilia were stained using a monoclonal antibody against acetylated α-tubulin (1:20) from a C3B9 hybridoma cell line, and visualized with A F488 (1:1000, ThermoFisher). Nuclei were visualized with Hoechst. Cells were imaged using a GE INCell 2000 high-throughput imager at 40× magnification. 4 fields of view were taken per well.
Each pair of nuclei and cilia images was first analyzed individually, then the entire population was examined to evaluate each compound's effect on cilia length and incidence. A custom MATLAB script was developed to perform all image analysis. This script first utilizes an enhanced implementation of a watershed transform, which is a segmentation tool which enables detection of similarly shaped overlapping particles in noisy images by the procedural whittling down of pixels found close to the edge of such particles. The augmentation of the algorithm incorporates thresholding for noise removal based on signal intensity and object size, nuclei dilation to exclude non-cellular artifacts, as well as skeletonization of cilia to quantify length. The results of the analysis are number of nuclei, number of cilia, and average cilia length in each image.
Compounds were selected based on deviation from the population mean. Each well was normalized to vehicle control images on each plate, allowing the establishment of a normalized population mean. Hits were chosen based on compounds whose triplicate mean was furthest (based on standard deviation away) from the population mean. […] Compounds were classified based on mechanism of action.
To identify compounds that modulate primary cilia formation a high-throughput platform was developed to automate cell culture, staining, imaging, and analysis, as shown in schematic form in FIG. 18. […] Cells were cultured on 384-well plates, and treated with small molecules with known biologic activity, enabling classification of mechanisms of action. Drug treatment was applied for 16 hours at 10 μM concentration, performed in triplicate, before fixation and immunostaining of primary cilia. Cells were then imaged using the GE INCell 2000 High Content Analyzer, capturing 4 fields of view per well at 40× magnification. Additionally, each plate contains 8 wells of DMSO vehicle control.
A MATLAB script was developed to detect and analyze changes in ciliogenesis. […] A representative exemplary image (FIG. 19A) is cropped to better display features, scale bar represents 30 μm. A custom MATLAB script was used to identify nuclei and cilia for analysis (FIG. 19B). […] Objects are further filtered based on size and signal intensity.
Cilia length and incidence for each field of view were normalized to vehicle control on that individual plate. This allowed development of a normalized population average and standard deviation. […] To control for toxic effects only small molecules with at least 40% viability, based on number of nuclei versus control, were selected as hits. Furthermore, compounds repeated between multiple libraries eliciting the same effect on cilia length or incidence were excluded, such that only one of the repeated compounds was selected as a hit.

As for `Cn1ccc2cc3c(cc21)CCN3C(=O)Nc1cccnc1` [SB 206553 hydrochloride], the “Average Length SD Away” value came to 1.704 SD.

Take `Cc1cccc(N(C)C(=S)Oc2ccc3ccccc3c2)c1` [Tolnaftate]: the “Average Incidence SD Away” value was 1.5099 SD.

In the case of `CC(C)OC(=O)C(C)(C)Oc1ccc(C(=O)c2ccc(Cl)cc2)cc1` [Fenofibrate (Tricor Trilipix), Fenofibrate], the “Average Incidence SD Away” value worked out at 2.95 SD.

For the molecule `O=C(O)c1nn(Cc2ccc(Cl)cc2Cl)c2ccccc12` [Lonidamine], the “Average Length SD Away” value came to 2.357 SD.

Take `CC(C)C(=O)Nc1ccc([N+](=O)[O-])c(C(F)(F)F)c1` [Flutamide (Eulexin), Flutamide]: the “Average Incidence SD Away” value is given as 2.035 SD.

`Oc1ccc(OCc2ccccc2)cc1` [MONOBENZONE]: the “Average Length SD Away” value is on record as 1.914 SD.

Consider `CC1=NCCc2c1[nH]c1cc(O)ccc21.Cl` [HARMALOL HYDROCHLORIDE], for which the “Average Length SD Away” value came to 1.629 SD.

In the case of `O=C(/C=C/c1ccccc1)c1ccc(O[C@@H]2O[C@H](CO)[C@@H](O)[C@H](O)[C@H]2O)cc1O` [2 4 -DIHYDROXYCHALCONE 4 -GLUCOSIDE], the “Average Length SD Away” value is given as 1.598 SD.

For `CNCCc1ccccn1` [BETAHISTINE HYDROCHLORIDE], the “Average Length SD Away” value was found to be 1.532 SD.

Take `CN(C)CCc1c[nH]c2ccc(C[C@H]3COC(=O)N3)cc12` [Zolmitriptan (Zomig), Zolmitriptan]: the “Average Incidence SD Away” value is given as 1.521 SD.

As for `CCc1c2c(nc3ccc(OC(=O)N4CCC(N5CCCCC5)CC4)cc13)-c1cc3c(c(=O)n1C2)COC(=O)[C@]3(O)CC.Cl` [CPT 11], the “Average Incidence SD Away” value came to 1.633 SD and the “Average Length SD Away” value turned out to be 1.894 SD.

In the case of `O.c1cnc2c(c1)ccc1cccnc12` [110-Phenanthroline monohydrate], the “Average Length SD Away” value is 1.838 SD.

For the molecule `C[C@@H](CN1CCC(n2c(=O)[nH]c3cc(Cl)ccc32)CC1)NC(=O)c1ccc2ccccc2c1` [VU 0155069], the “Average Length SD Away” value was 1.618 SD.

`COc1c(C)c2c(c(O)c1C/C=C(\C)CCC(=O)OCCN1CCOCC1)C(=O)OC2` [Mycophenolate mofetil (CellCept), Mycophenolate mofetil]: the “Average Incidence SD Away” value is 1.654 SD and the “Average Length SD Away” value is 1.579 SD.

As for `O=c1[nH]cc(F)c(=O)[nH]1` [5-fluorouracil], the “Average Length SD Away” value was 1.775 SD.

As to `COc1ccc2cccc(N3CCN(CCNC(=O)c4ccc(F)cc4)CC3)c2c1.Cl` [S 14506 hydrochloride], the “Average Length SD Away” value is recorded as 1.54 SD.

On to `CCCC(=O)[O-].[Na+]` [Sodium butyrate], for which the “Average Incidence SD Away” value turned out to be 2.3981 SD.

As for `CCCCOc1ccc(CC(=O)NO)cc1` [Bufexamac], the “Average Incidence SD Away” value is reported as 2.326 SD and the “Average Length SD Away” value was determined as 3.676 SD. For the same molecule, where the note is “hit = 1.5 standard deviation above population average, at least 40% viability”, the “classification as hit increasing cilia length in the screen” value is “listed as a hit increasing length; also recorded: listed as hits”.

On to `CN(Cc1cnc2nc(N)nc(N)c2n1)c1ccc(C(=O)N[C@@H](CCC(=O)O)C(=O)O)cc1` (racemic) [Amethopterin (RS)], for which the “Average Length SD Away” value came to 2.927 SD.

In the case of `O=C1CN=C(c2cccc(Br)c2)c2oc3ccccc3c2N1` [5-BDBD], the “Average Length SD Away” value was determined as 1.92 SD.

`CN1[C@@H]2CC[C@H]1C[C@@H](OC(=O)c1c[nH]c3ccccc13)C2` [Tropisetron]: the “Average Incidence SD Away” value came out at 1.694 SD.

Consider `O=C1c2ccccc2C(=O)C1c1ccccc1` [Phenindione (Rectadione), Phenindione], for which the “Average Incidence SD Away” value is listed as 1.688 SD.

Take `CN1[C@@H]2CC[C@H]1C[C@@H](OC(=O)C(CO)c1ccccc1)C2` (some centres unmarked) [Atropine]: the “Average Incidence SD Away” value was 1.694 SD.

Regarding `Cc1cccc([C@H](C)c2cnc[nH]2)c1C` [Dexmedetomidine HCl (Precedex), Dexmedetomidine HCl], the “Average Incidence SD Away” value came out at 2.924 SD.

For `Br.C=CCN1CCc2cc(O)c(O)cc2C(c2ccccc2)C1` (centres unmarked) [SKF 77434 hydrobromide], the “Average Length SD Away” value was determined as 1.527 SD.
